In general, EC50 refers to the concentration at which the effect is half-maximal.

Molecules are shown by their SMILES.

Here are results for four molecules from patent US9622995B2, “Treatment of disorders associated with G protein-coupled receptor 35 (GPR35)” (TEMPLE UNIVERSITY—OF THE COMMONWEALTH SYSTEM OF HIGHER …, priority 2009, dated 2017).

For assay [1], the target named is T1, GPR55 receptors (Homo sapiens, UniProt Q9Y2T6).
T1 construct: expressed in transfected cells; host or cells: U2OS cells
The experiment in a line: βarr2-GFP redistribution in U2OS cells co-expressing GPR55 (specificity control). The class given is cell-based. To be noted: U2OS cells co-expressing βarr2-GFP and GPR55, 1 μM; data not shown.

Assay [2] has as its target T2, CB1 cannabinoid receptors (Homo sapiens, UniProt P21554).
T2 construct: expressed in transfected cells; host or cells: U2OS cells
The experiment in a line: βarr2-GFP redistribution in U2OS cells co-expressing CB1 (specificity control). The class given is cell-based. To be noted: U2OS cells co-expressing β-arr2-GFP and CB1, 1 μM; data not shown.

For assay [3], the target named is T3, vasopressin receptor (V2R) (Homo sapiens, UniProt P30518).
T3 construct: expressed in transfected cells; host or cells: U2OS cells
The experiment in a line: β-arrestin2-GFP redistribution in U2OS cells overexpressing V2R (specificity control). The format is cell-based. As to conditions: U2OS cells with β-arrestin2-GFP and overexpressed V2R, 1 μM. As to the method: (§1) U20S cells expressing HA-GPR35a/βarr2-GFP (also known as UGPR35β cells) were plated in a 24-well plate onto coverslips that were coated with poly-D-lysine (0.02 mg/ml; Sigma-Aldrich, St. Louis, Mo., USA) for 1 hour. Cells were maintained at 37° C., 5% CO2 until ready for experiment (90% confluent). Cells were washed once with Hanks' balanced salt solution (HBSS, Cellgro, Mediatech, Inc, Manassas, Va., USA) comprising CaCl2 0.14 g/L, KCl 0.4 g/L, KH2PO4 0.06 g/L, MgSO4 0.097 g/L, NaCl 8 g/L, Na2HPO4 0.047 g/L, NaHCO3 0.35 g/L, and D-glucose 1.0 g/L. For receptor activation, agonist-evoked redistribution of βarr2-GFP was measured by applying the drug for 40 minutes. For measuring the effects of antagonist, agonist and antagonist were co-applied.
(§2) Cells were then fixed with 4% paraformaldehyde for 20 minutes at room temperature, followed by three washes with HBSS.
In that panel, fluorescence was observed close to the cell membrane. As a control for drug specificity, 1 μM pamoic acid was added to a U2OS cell line containing β-arrestin2-GFP and overexpressed vasopressin receptor (V2R).

Assay [4] in a line: Acetic acid writhing (abdominal constriction) test in mice. As to conditions: for mean number of writhes: male Swiss Webster mice, 0.6% acetic acid i.p., saline control 21±1.
Assay [5] in a line: Middle cerebral artery occlusion with reperfusion (MCAO/R) stroke model. The format is in vivo. As to conditions: male mice. The protocol: Several animal-based models for stroke have been proposed and validated, such as the artery occlusion and reperfusion model in male mice described by Zhang and coworkers (Microvasc. Res., 2009, 78(1):86-94). In this model, the animals are submitted to middle cerebral artery occlusion for a period of 60 minutes and then reperfusion is allowed. Cerebral infarction volume is measured by analyzing sections of the animal brain stained with triphenyltetrazolium chloride. Triphenyltetrazolium chloride is believed to be reduced to red formazan by mitochondrial enzymes, specifically succinate dehydrogenase (Lippold, 1982, Histochemistry 76:381-405). […] Therefore, TTC staining is extensively used in animal stroke experiments for quantitatively delineating the infarct volume (Memezawa et al., 1992, Exp. Brain Res. 89:67-78.; Hasegawa et al., 1995, J. Cereb. Blood Flow Metab. 15:179-187; Kuge et al., 1995, Stroke 26:1655-1658; Fuhai et al., 1997, J. Cereb. Blood Flow Metab. 17:1132-1135). […]
Cerebral infarction volume was measured 24 hours after MCAO/R. The animals were euthanized with an overdose of pentobarbital (200 mg/kg i.p.) 24 hours after MCAO and the brains were removed, and chilled on ice for 10 min to slightly harden the tissue. […]

In assay [6] the target is T4, human GPR35 (Homo sapiens, UniProt Q9HC97).
T4 construct: host or cells: CHO cells
To be noted: CHO cells co-transfected with human GPR35, Aequorin readout; Wang et al. 2006; read-out: EC50 for receptor activation; cited from earlier work.

Assay [7] concerns the target T5, rat GPR35 (Rattus norvegicus, UniProt Q33BM1).
T5 construct: host or cells: CHO cells
To be noted: CHO cells co-transfected with rat GPR35, Aequorin readout; Wang et al. 2006; read-out: EC50 for receptor activation; cited from earlier work.

Assay [8] concerns the target T6, mouse GPR35 (Mus musculus, UniProt Q9ES90).
T6 construct: host or cells: CHO cells
To be noted: CHO cells co-transfected with mouse GPR35, Aequorin readout; Wang et al. 2006; read-out: EC50 for receptor activation; cited from earlier work.

Assay [9] concerns the target GPR35a (Homo sapiens, UniProt Q9HC97, S294R). The assay can be described thus: β-arrestin2-GFP redistribution/aggregation in UGPR35β cells. The class given is cell-based. Details: expressed in transfected cells. As to conditions: mean (95% confidence interval in brackets in the text), read-out: EC50 for β-arrestin2 aggregation.
From the text: This cellular assay utilizes the intracellular β-arrestin protein as a reporter of receptor activity. […] Upon agonist-mediated GPCR activation, β-arrestins rapidly redistribute en masse to ligand-activated plasma membrane receptors (on the other hand, β-arrestins remain in the cytosol upon antagonist binding to the receptor). Activated GPCR/β-arrestin complexes will concentrate in clathrin-coated pits and/or internal vesicles where most GPCRs normally undergo internalization. At this juncture, the β-arrestin either (i) dissociates and returns to the cytoplasm, or (ii) further redistributes with the receptor into an intracellular endosomal vesicle, depending on the receptor type. It is the agonist-induced redistribution of β-arrestin-GFP into progressively smaller compartments (cytosolic compartment>plasma membrane>coated pit>endosomal compartment) that enables imaging of receptor activation.
This cell line is herein referred to as UGPR35β. Selected cells were maintained at 200 μg/ml G418® and 100 μg/ml Zeocin® at 37° C. and 5% CO2.
as §1, §2
βarr2-GFP aggregates were identified by a wavelet-based, Microsoft Windows-compatible computer program written in the MatLab programming environment. A program algorithm extracts from two dimensional images those pixels that generate objects of interest that fall within a predetermined range of sizes and intensities and that are embedded among widely varying local backgrounds (L. Barak, available from the Duke University GPCR Assay Bank). Concentration-effect curves for agonist-mediated receptor activation were analyzed by non-linear regression techniques using GraphPad Prism 4.0 software (GraphPad) and data were fitted to sigmoidal dose-response curves to obtain EC50 or IC50 values. Statistical analysis was performed using one-way analysis of variance (ANOVA) followed by Dunnett's post-test or two-tailed unpaired student t test. P values of <0.05 are considered significant.
A prototypical U2OS osteosarcoma cell line that permanently expresses β-arrestin-GFP and N-terminal triple HA-tagged human GPR35a was used to screen ligands for agonism or antagonism against the GPR35 receptor. […] Endogenous receptors are invisible to the assay because there are too few endogenous receptors of any type compared to the number of β-arrestin molecules in the cell to provide a measurable response.
Upon agonist-mediated GPCR activation, β-arrestins rapidly redistribute en masse to ligand-activated plasma membrane receptors, and then the activated GPCR/arrestin complexes concentrate in clathrincoated pits and/or internal vesicles.
Concentration response curves for β-arrestin2 aggregation were obtained for compounds of interest. For this study, UGPR35β cells were treated with different concentrations of a compound of interest and images of the cells (acquired in triplicate in three or more independent experiments) were analyzed for fluorescence.

Assay [10] has as its target GPR35 (Homo sapiens, UniProt Q9HC97, S294R). The assay can be described thus: cell-based.
Description: Loss of cell surface receptor may be evaluated by methods such as On-Cell Western analysis of the cells under treatment.
In a non-limiting example, a cell line that expresses N-terminal triple HA-tagged GPR35 receptor is used. After contacting the cells with a candidate GPR35 agonist and incubating the system for a set period of time, the cells are incubated with an anti-HA mouse antibody, followed by incubation with a fluorophore-labeled anti-mouse antibody. The resulting observed fluorescence is then used to assess the level of GPR35 receptor on the cell surface.
The previously described U2OS cells expressing HA-GPR35a/βarr2-GFP (also known as UGPR35β cells) were seeded and grown until confluence on the bottoms of a 96-well plate. […] Cells were washed once with Hanks' balanced salt solution (HBSS, Cellgro, Mediatech, Inc, Manassas, Va., USA) prior to appropriate drug treatment and then fixed with 4% formaldehyde for 20 minutes at room temperature. This step was followed by three washes with PBS for 5 minutes each.
The secondary antibody (IRDye 800 conjugated anti-mouse IgG, Rockland, Gilbertsville, Pa.; 1:1000 in LI-COR Odyssey® blocking buffer) was then added to the treated cells and incubated for 1 hour at room temperature protected from light.
Cells grown on coverslips were incubated over ice for 40 minutes with a 1:500 dilution of mouse monoclonal anti-HA antibody in blocking buffer (3% BSA in PBS), followed by three consecutive washes with PBS. […] Antibody-labeled cells were treated with agonist alone or in combination with antagonist for 40 minutes at 37° C., and the cells were then imaged.
On-Cell western analysis was performed using a LI-COR odyssey infra-red imager to quantify ligand potency to induce loss of cell surface receptor.
For each concentration of the compound of interest, the intensity of labeling was measured using immunofluorescence. The readings were plotted against the compound concentrations, yielding binding curves that allowed the calculation of EC50 values (FIGS. 6C-E).

T3 sequence (P30518 whole entry, species assumed): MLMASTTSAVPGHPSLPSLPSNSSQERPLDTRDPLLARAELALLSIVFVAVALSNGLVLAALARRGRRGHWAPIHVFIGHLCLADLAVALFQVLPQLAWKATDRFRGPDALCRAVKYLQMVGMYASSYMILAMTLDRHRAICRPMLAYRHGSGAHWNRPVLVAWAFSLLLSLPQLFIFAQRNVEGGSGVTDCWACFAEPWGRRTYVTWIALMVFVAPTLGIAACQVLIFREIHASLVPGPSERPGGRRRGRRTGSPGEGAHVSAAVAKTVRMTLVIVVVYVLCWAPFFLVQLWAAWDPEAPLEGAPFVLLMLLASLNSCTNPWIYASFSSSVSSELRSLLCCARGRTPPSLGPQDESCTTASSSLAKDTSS
T1 sequence (Q9Y2T6 whole entry): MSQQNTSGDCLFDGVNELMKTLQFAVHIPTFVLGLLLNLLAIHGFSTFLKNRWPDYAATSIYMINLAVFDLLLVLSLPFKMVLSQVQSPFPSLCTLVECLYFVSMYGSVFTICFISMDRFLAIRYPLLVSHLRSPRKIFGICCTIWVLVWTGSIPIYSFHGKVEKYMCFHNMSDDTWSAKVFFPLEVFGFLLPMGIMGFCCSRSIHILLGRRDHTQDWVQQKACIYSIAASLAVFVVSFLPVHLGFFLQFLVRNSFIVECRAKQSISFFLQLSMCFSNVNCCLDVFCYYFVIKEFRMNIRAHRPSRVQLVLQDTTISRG
T5 sequence (Q33BM1 1-306): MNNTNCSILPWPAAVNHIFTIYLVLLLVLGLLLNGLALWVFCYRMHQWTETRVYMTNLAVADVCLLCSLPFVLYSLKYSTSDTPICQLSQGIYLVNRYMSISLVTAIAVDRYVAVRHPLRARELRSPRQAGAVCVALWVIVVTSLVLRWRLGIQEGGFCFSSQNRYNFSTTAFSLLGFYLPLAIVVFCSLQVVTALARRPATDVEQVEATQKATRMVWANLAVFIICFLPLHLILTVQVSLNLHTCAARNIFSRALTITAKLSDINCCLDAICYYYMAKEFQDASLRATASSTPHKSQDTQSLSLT
T6 sequence (Q9ES90 whole entry): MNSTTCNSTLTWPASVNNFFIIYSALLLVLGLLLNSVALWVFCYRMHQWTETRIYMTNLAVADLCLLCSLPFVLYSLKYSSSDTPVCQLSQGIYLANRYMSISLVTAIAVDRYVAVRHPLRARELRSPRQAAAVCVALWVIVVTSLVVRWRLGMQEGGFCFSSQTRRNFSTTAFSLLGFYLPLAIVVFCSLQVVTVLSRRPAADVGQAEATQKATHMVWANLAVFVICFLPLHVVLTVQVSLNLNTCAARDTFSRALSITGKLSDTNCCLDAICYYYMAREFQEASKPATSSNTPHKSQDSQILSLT
T2 sequence (P21554 whole entry): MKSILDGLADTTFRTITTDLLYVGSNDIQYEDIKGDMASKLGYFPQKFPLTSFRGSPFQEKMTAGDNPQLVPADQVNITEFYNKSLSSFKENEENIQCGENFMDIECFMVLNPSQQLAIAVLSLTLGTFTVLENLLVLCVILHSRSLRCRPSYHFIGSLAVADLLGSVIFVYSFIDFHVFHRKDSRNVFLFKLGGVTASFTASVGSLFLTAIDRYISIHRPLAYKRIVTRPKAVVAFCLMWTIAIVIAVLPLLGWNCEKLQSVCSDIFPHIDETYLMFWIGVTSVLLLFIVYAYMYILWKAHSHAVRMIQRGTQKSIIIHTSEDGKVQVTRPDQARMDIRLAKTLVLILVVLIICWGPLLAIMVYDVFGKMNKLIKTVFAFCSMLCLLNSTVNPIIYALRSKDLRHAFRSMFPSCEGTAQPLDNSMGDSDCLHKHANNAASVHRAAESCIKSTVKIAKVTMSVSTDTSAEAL
Sequence of GPR35 (Q9HC97 whole entry S294R): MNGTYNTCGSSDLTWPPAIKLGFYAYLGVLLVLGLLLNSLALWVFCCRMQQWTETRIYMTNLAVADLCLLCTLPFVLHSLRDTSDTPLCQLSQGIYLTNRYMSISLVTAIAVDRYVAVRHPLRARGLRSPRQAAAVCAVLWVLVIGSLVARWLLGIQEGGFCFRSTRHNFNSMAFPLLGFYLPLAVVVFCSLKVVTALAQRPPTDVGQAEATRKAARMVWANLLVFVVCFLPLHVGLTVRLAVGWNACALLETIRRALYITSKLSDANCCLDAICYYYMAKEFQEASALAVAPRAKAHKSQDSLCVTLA
Sequence of GPR35a (Q9HC97 whole entry S294R): as above
T4 sequence (Q9HC97 whole entry): as the sequence (Q9HC97 whole entry S294R) above, with R294S counted along it

For `O=C(O)c1cc2ccccc2c(Cc2c(O)c(C(=O)O)cc3ccccc23)c1O` [Compound 1, 4-[(3-carboxy-2-hydroxynaphthalen-1-yl)methyl]-3-hydroxynaphthalene-2-carboxylic acid], the βarr2-GFP response result in assay [1] and in assay [2] was “no response was observed” each time. The “change in β-arrestin2-GFP fluorescence distribution” value in assay [3] is recorded as “no change in fluorescence distribution was observed”. For the same molecule, the “antinociceptive effect, in words” value in assay [4] (mice, s.c., dose of 100 mg/kg) was “essentially complete antinociception”. Also, the “subcutaneous dose causing 50% antinociception” value in assay [4] (mice, s.c., given as disodium pamoate, 95% CL 28.3-90.3 mg/kg) is recorded as 40.5 mg/kg.
Turning to `O=C(O)c1cc2ccccc2c(Cc2c(O)c(C(=O)O)cc3ccccc23)c1O` [disodium pamoate], the infarction percentage entry in assay [5] (given one hour prior to reperfusion, measured 24 hours after MCAO/R, control about 27%) is recorded as “about 17%”. The “reduction in infarction percentage” value in assay [5] (versus untreated control) was “about 37%”. The figures for the “mean number of writhes” value in [4] (25 mg/kg s.c.), in assay [4] (50 mg/kg s.c.) and in assay [4] (100 mg/kg s.c.) were 14±2, 11±2 and 0.4±0.2, respectively.
Regarding `O=C(O)c1cc(=O)c2ccccc2[nH]1` [kynurenic acid, 2-carboxy-4-hydroxy-quinoline], the EC50 in [6] is 40 µM; in [7], 7 µM; in assay [8], 11 µM; in [9], 217 µM.
In turn, `CN1CCCN=C1/C=C/c1cccs1` [pyrantel pamoate] showed an EC50 in assay [10] of 0.0887 µM.
